The test system of one data set is Staphylococcus aureus. The data set is described as follows: Antimicrobial activity against Staphylococcus aureus ATCC 9144 assessed as inhibition of bacterial growth incubated for 48 hrs by CLSI based broth microdilution method. The format is functional.
In data set [1] the test system is Cell membrane. The data set is described as follows: Disruption of inner membrane integrity in Escherichia coli K12 at 51.2 microg/ml measured for 3 mins by luciferase based bioluminescence assay. The format is subcellular. As to conditions: dose 51.2 µg/ml.
Data set [2] has as its system Cell membrane. The data set is described as follows: Disruption of inner membrane integrity in Escherichia coli K12 at 51.2 microg/ml measured for 180 sec by luciferase based bioluminescence assay. The data set is classed as subcellular. Conditions: dose 51.2 µg/ml.
For data set [3], the system named is Cell membrane. The data set is described as follows: Disruption of membrane integrity in Bacillus subtilis 168 at 25.6 microg/ml measured for 180 sec by luciferase based bioluminescence assay. The format is subcellular. As to conditions: dose 25.6 µg/ml.
Data set [4] has as its system Cell membrane. The data set is described as follows: Induction of outer membrane permeabilization in Escherichia coli K12 assessed as increase in fluorescence intensity at 1.6 to 51.2 microg/ml measured for […] by NPN uptake assay. The data set is classed as subcellular. As to conditions: dose 1.6-51.2 µg/ml.
The subject of data set [5] is Escherichia coli. The data set is described as follows: Antibacterial activity against Escherichia coli K12 assessed as reduction in bacterial viability at 51.2 microg/ml measured for 3 min. The format is functional, organism-based. Conditions: dose 51.2 µg/ml.
Data set [6] relates to Escherichia coli. The data set is described as follows: Antibacterial activity against Escherichia coli K12 assessed as reduction in bacterial viability at 1.6 to 51.2 microg/ml measured for 3 min. The data set is classed as functional, organism-based. As to conditions: dose 1.6-51.2 µg/ml.
For data set [7], the system named is Bacillus subtilis. The data set is described as follows: Antimicrobial activity against Bacillus subtilis 168 assessed as inhibition of bacterial growth incubated for 48 hrs by CLSI based broth microdilution method. The format is functional.
Data set [8] concerns Cell membrane. The data set is described as follows: Disruption of inner membrane integrity in Escherichia coli K12 at 1.6 to 25.6 microg/ml measured for 3 mins by luciferase based bioluminescence assay. The data set is classed as subcellular. As to conditions: dose 1.6-25.6 µg/ml.
Data set [9] is described as follows: Selectivity index, ratio of EC50 for hemolytic activity in human RBC assessed as hemolysis to MIC for antimicrobial activity against Bacillus subtilis 168 assessed as inhibition of bacterial growth. The data set is classed as toxicity. Conditions: human red blood cells (erythrocytes), read-out: Selectivity Index.
Data set [10] in a line: Hemolytic activity in human RBC assessed as hemolysis incubated for 1 hr by absorbance based microplate reader analysis. The data set is classed as toxicity, cell-based, Erythrocyte. As to conditions: human red blood cells (erythrocytes).
Data set [11] concerns Cell membrane. The data set is described as follows: Disruption of membrane integrity in Bacillus subtilis 168 measured for 180 sec by luciferase based bioluminescence assay. Conditions: dose 1.6-51.2 µg/ml. The data set is classed as subcellular.
Data set [12] deals with Bacillus subtilis. The data set is described as follows: Antibacterial activity against Bacillus subtilis 168 assessed as reduction in bacterial viability at 1.6 to 51.2 microg/ml measured after 3 min. The data set is classed as functional, organism-based. As to conditions: dose 1.6-51.2 µg/ml.
Data set [13] has as its system Cell membrane. The data set is described as follows: Disruption of membrane integrity in Bacillus subtilis 168 at 25.6 to 51.2 microg/ml measured for 180 sec by luciferase based bioluminescence assay. Conditions: dose 25.6-51.2 µg/ml.
The test system of data set [14] is Escherichia coli. The data set is described as follows: Antimicrobial activity against Escherichia coli ATCC 25922 assessed as inhibition of bacterial growth incubated for 48 hrs by CLSI based broth microdilution method. The format is functional. For orientation: Dilution methods test growth across graded concentrations, often in twofold steps.
The test system of data set [15] is Escherichia coli. The data set is described as follows: Antibacterial activity against Escherichia coli K12 assessed as reduction in bacterial viability measured for 3 min. Conditions: dose 1.6-51.2 µg/ml. The format is functional, organism-based.
A short description of data set [16]: Selectivity index, ratio of EC50 for hemolytic activity in human RBC assessed as hemolysis to MIC for antimicrobial activity against Staphylococcus aureus ATCC 9144 assessed as inhibition of bacterial growth. The format is toxicity. As to conditions: human red blood cells (erythrocytes), read-out: Selectivity Index.
The test system of data set [17] is Cell membrane. The data set is described as follows: Disruption of outer membrane integrity in Escherichia coli K12 assessed as increase in fluorescence intensity at 51.2 microg/ml measured for 3 mins by NPN uptake assay. The data set is classed as subcellular. As to conditions: dose 51.2 µg/ml.
Data set [18] can be described thus: Selectivity index, ratio of EC50 for hemolytic activity in human RBC assessed as hemolysis to MIC for antimicrobial activity against Escherichia coli ATCC 25922 assessed as inhibition of bacterial growth. Conditions: human red blood cells (erythrocytes), read-out: Selectivity Index. The format is toxicity.
The next data set deals with Pseudomonas aeruginosa. The data set is described as follows: Antimicrobial activity against Pseudomonas aeruginosa ATCC 27853 assessed as inhibition of bacterial growth incubated for 48 hrs by CLSI based broth microdilution method. The data set is classed as functional.
For data set [19], the system named is Escherichia coli. The data set is described as follows: Antimicrobial activity against Escherichia coli K12 assessed as inhibition of bacterial growth incubated for 48 hrs by CLSI based broth microdilution method. The format is functional.

≈ marks a conversion by molar mass, not a printed value. Calls of active or inactive are those of the source. The rule behind the calls is not given here.

For orientation: MIC means the lowest concentration found to suppress growth. The EC50 is the concentration giving half of the maximal effect.

As to `N=C(N)NCCCCN1C(=O)N(CCCCNC(=N)N)C(Cc2ccc(Br)c(Cl)c2)(Cc2ccc(Br)c(Cl)c2)C1=O.O=C(O)C(F)(F)F.O=C(O)C(F)(F)F`, the minimum inhibitory concentration (MIC) is 1 µg/mL in the data set on Staphylococcus aureus, 1 µg/mL in the data set on Bacillus subtilis [7], 8 µg/mL in the data set with Escherichia coli [14] and 32 µg/mL in the data set on Pseudomonas aeruginosa. Also, the outcome in the data set on Cell membrane [1], with Cell membrane [3], in the data set with Cell membrane [4], with Escherichia coli [5], with Bacillus subtilis [12] and in the data set with Cell membrane [13] was Active. Moreover, the result in the data set with Cell membrane [17] was Active. The outcome in the data set with Cell membrane [2], in the data set with Escherichia coli [6] and with Cell membrane [8] was inactive. In addition, the values for the selectivity ratio in [9], in data set [16] and in data set [18] were 347, 347 and 43, respectively. In data set [10], the EC50 at 1 h is 347 µg/mL. The Activity result in the data set on Cell membrane [11] and in the data set with Escherichia coli [15] was “Dose-Dependent Effect” in each case.

With `N=C(NCCCCCCNC(=N)NC(=N)Nc1ccc(Cl)cc1)NC(=N)Nc1ccc(Cl)cc1` [CHLORHEXIDINE], the minimum inhibitory concentration (MIC) in the data set on Escherichia coli [19] and in the data set with Bacillus subtilis [7] was 1.5 µg/mL (≈ 2.97 µM) throughout.

The values are drawn from ChEMBL document CHEMBL5346904 (Eur J Med Chem, 2023).
